Tested on: GAPDH locus
Experiment: HiBiT sequence knock-in assay (NanoLuc luciferase complementation)
Format: cell-based
Excerpt: FIG. 39A-39E—Schematic of the HiBiT assay to check the HDR-mediated knock-in of the 33-nt DNA fragment. (FIG. 39A) General gRNA and ssODN design strategy for HDR-based HiBiT sequence knock-in right before the stop codon of the gene of interest. (FIG. 39B) The knock-in results in the expression of a fusion protein having a C-terminal HiBiT tag, which is a small fragment of the NanoLuc luciferase. When an excess amount of the other fragment of NanoLuc (LgBiT) is supplied, a fully functional NanoLuc is reconstituted. The resulting luminescence signal is proportional to the HDR efficiency. […]
Applicants then designed an ssODN that would insert a 33-nt DNA fragment (HiBiT sequence) at a gene of interest by HDR pathway (FIG. 39A). […] When complemented by LgBiT, the remainder of NanoLuc, the full-length luciferase is reconstituted to generate a luminescence signal proportional to the degree of ssODN incorporation, providing an easy readout for measuring the level of HDR (FIG. 39B). Applicants chose GAPDH as the first target gene (FIG. 39C) owing to its abundant expression in many cell types, which should allow for the reliable detection of the luminescence signal. […] Using the negative control ssODN without the complementary sequence, Applicants determined if appending the DNA adaptor to the cysteine affected Cas9 activity using the HiBiT insertion assay (FIG. 13b). […]

HDR enhancement by NHEJ pathway inhibitors in the HiBiT assay	Structure (SMILES)
enhanced HDR enhancement	O=c1cc(N2CCOCC2)oc2c(-c3cccc4c3sc3ccccc34)cccc12 [KU-57788]
enhanced HDR enhancement	CCN1CCN(CC(=O)Nc2ccc(-c3cccc4c(=O)cc(N5CCOCC5)oc34)c3sc4ccccc4c23)CC1 [KU-0060648]

Reference: US20220098620A1, “NOVEL NUCLEIC ACID MODIFIERS” (THE BROAD INSTITUTE, INC., priority 2019, published 2022)
